Assay results reported in ChEMBL document CHEMBL1649524, “Resistance selection studies comparing the activity of razupenem (PTZ601) to vancomycin and linezolid against eight methicillin-resistant and two methicillin-susceptible Staphylococcus aureus strains” (2009).
Values after ≈ are worked out from the molar mass of the structure shown.

Tests used:
Assay type in all cases: functional
[1] = system: Staphylococcus aureus; assay: Antimicrobial activity against heterogeneous vancomycin-intermediate Staphylococcus aureus 168 by macrodilution method
[2] = system: Staphylococcus aureus; assay: Antimicrobial activity against vancomycin-intermediate Staphylococcus aureus 555 by macrodilution method
[3] = system: Staphylococcus aureus; assay: Antimicrobial activity against methicillin-resistant Staphylococcus aureus 525 by macrodilution method
[4] = system: Staphylococcus aureus; assay: Antimicrobial activity against methicillin-resistant Staphylococcus aureus 547 by macrodilution method
[5] = system: Staphylococcus aureus; assay: Antimicrobial activity against methicillin-susceptible Staphylococcus aureus 540 by macrodilution method
[6] = system: Staphylococcus aureus; assay: Antimicrobial activity against methicillin-resistant Staphylococcus aureus 547 after 23 passages by macrodilution method
[7] = system: Staphylococcus aureus; assay: Antimicrobial activity against vancomycin-resistant Staphylococcus aureus 509 after 50 passages by macrodilution method
[8] = system: Staphylococcus aureus; assay: Antimicrobial activity against vancomycin-intermediate Staphylococcus aureus 1287 measured after 10 antibiotic-free subculturing by macrodilution method
[9] = system: Staphylococcus aureus; assay: Antimicrobial activity against methicillin-resistant Staphylococcus aureus 525 measured after 10 antibiotic-free subculturing by macrodilution method
[10] = system: Staphylococcus aureus; assay: Antimicrobial activity against methicillin-resistant Staphylococcus aureus 547 measured after 10 antibiotic-free subculturing by macrodilution method
[11] = system: Staphylococcus aureus; assay: Antimicrobial activity against methicillin-susceptible Staphylococcus aureus 540 measured after 10 antibiotic-free subculturing by macrodilution method
[12] = system: Staphylococcus aureus; assay: Antimicrobial activity against methicillin-susceptible Staphylococcus aureus 543 measured after 10 antibiotic-free subculturing by macrodilution method
[13] = system: Staphylococcus aureus; assay: Antimicrobial activity against vancomycin-resistant Staphylococcus aureus 509 measured after 10 antibiotic-free subculturing by macrodilution method
[14] = system: Staphylococcus aureus; assay: Antimicrobial activity against methicillin-resistant Staphylococcus aureus 525 measured on day 5 by macrodilution method; settings: Staphylococcus aureus, 525, 120 h
[15] = system: Staphylococcus aureus; assay: Antimicrobial activity against methicillin-resistant Staphylococcus aureus 547 measured on day 5 by macrodilution method; settings: Staphylococcus aureus, 547, 120 h
[16] = system: Staphylococcus aureus; assay: Antimicrobial activity against methicillin-susceptible Staphylococcus aureus 540 measured on day 5 by macrodilution method; settings: Staphylococcus aureus, 540, 120 h
[17] = system: Staphylococcus aureus; assay: Antimicrobial activity against heterogeneous vancomycin-intermediate Staphylococcus aureus 873 measured on day 10 by macrodilution method; settings: Staphylococcus aureus, 873, 240 h
[18] = system: Staphylococcus aureus; assay: Antimicrobial activity against heterogeneous vancomycin-intermediate Staphylococcus aureus 168 measured on day 15 by macrodilution method; settings: Staphylococcus aureus, 168, 360 h
[19] = system: Staphylococcus aureus; assay: Antimicrobial activity against vancomycin-intermediate Staphylococcus aureus 1287 measured on day 15 by macrodilution method; settings: Staphylococcus aureus, 1287, 360 h
[20] = system: Staphylococcus aureus; assay: Antimicrobial activity against methicillin-susceptible Staphylococcus aureus 540 measured on day 15 by macrodilution method; settings: Staphylococcus aureus, 540, 360 h
[21] = system: Staphylococcus aureus; assay: Antimicrobial activity against methicillin-susceptible Staphylococcus aureus 543 measured on day 15 by macrodilution method; settings: Staphylococcus aureus, 543, 360 h
[22] = system: Staphylococcus aureus; assay: Antimicrobial activity against vancomycin-resistant Staphylococcus aureus 509 measured on day 15 by macrodilution method; settings: Staphylococcus aureus, 509, 360 h
[23] = system: Staphylococcus aureus; assay: Antimicrobial activity against heterogeneous vancomycin-intermediate Staphylococcus aureus 873 measured on day 20 by macrodilution method; settings: Staphylococcus aureus, 873, 480 h
[24] = system: Staphylococcus aureus; assay: Antimicrobial activity against vancomycin-intermediate Staphylococcus aureus 1287 measured on day 20 by macrodilution method; settings: Staphylococcus aureus, 1287, 480 h
[25] = system: Staphylococcus aureus; assay: Antimicrobial activity against methicillin-susceptible Staphylococcus aureus 540 measured on day 20 by macrodilution method; settings: Staphylococcus aureus, 540, 480 h
[26] = system: Staphylococcus aureus; assay: Antimicrobial activity against vancomycin-resistant Staphylococcus aureus 510 measured on day 20 by macrodilution method; settings: Staphylococcus aureus, 510, 480 h
[27] = system: Staphylococcus aureus; assay: Antimicrobial activity against vancomycin-resistant Staphylococcus aureus 509 measured on day 20 by macrodilution method; settings: Staphylococcus aureus, 509, 480 h
[28] = system: Staphylococcus aureus; assay: Antimicrobial activity against vancomycin-resistant Staphylococcus aureus 510 measured on day 25 by macrodilution method; settings: Staphylococcus aureus, 510, 600 h
[29] = system: Staphylococcus aureus; assay: Antimicrobial activity against heterogeneous vancomycin-intermediate Staphylococcus aureus 168 measured on day 30 by macrodilution method
[30] = system: Staphylococcus aureus; assay: Antimicrobial activity against heterogeneous vancomycin-intermediate Staphylococcus aureus 873 measured on day 30 by macrodilution method
[31] = system: Staphylococcus aureus; assay: Antimicrobial activity against vancomycin-intermediate Staphylococcus aureus 555 measured on day 30 by macrodilution method
[32] = system: Staphylococcus aureus; assay: Antimicrobial activity against methicillin-susceptible Staphylococcus aureus 540 measured on day 30 by macrodilution method
[33] = system: Staphylococcus aureus; assay: Antimicrobial activity against vancomycin-resistant Staphylococcus aureus 510 measured on day 30 by macrodilution method
[34] = system: Staphylococcus aureus; assay: Antimicrobial activity against vancomycin-intermediate Staphylococcus aureus 1287 measured on day 35 by macrodilution method
[35] = system: Staphylococcus aureus; assay: Antimicrobial activity against methicillin-resistant Staphylococcus aureus 525 measured on day 35 by macrodilution method
[36] = system: Staphylococcus aureus; assay: Antimicrobial activity against methicillin-susceptible Staphylococcus aureus 543 measured on day 35 by macrodilution method
[37] = system: Staphylococcus aureus; assay: Antimicrobial activity against vancomycin-resistant Staphylococcus aureus 510 measured on day 35 by macrodilution method
[38] = system: Staphylococcus aureus; assay: Antimicrobial activity against heterogeneous vancomycin-intermediate Staphylococcus aureus 873 measured on day 40 by macrodilution method
[39] = system: Staphylococcus aureus; assay: Antimicrobial activity against vancomycin-intermediate Staphylococcus aureus 1287 measured on day 40 by macrodilution method
[40] = system: Staphylococcus aureus; assay: Antimicrobial activity against methicillin-resistant Staphylococcus aureus 525 measured on day 40 by macrodilution method
[41] = system: Staphylococcus aureus; assay: Antimicrobial activity against methicillin-susceptible Staphylococcus aureus 540 measured on day 40 by macrodilution method
[42] = system: Staphylococcus aureus; assay: Antimicrobial activity against heterogeneous vancomycin-intermediate Staphylococcus aureus 168 measured on day 45 by macrodilution method
[43] = system: Staphylococcus aureus; assay: Antimicrobial activity against heterogeneous vancomycin-intermediate Staphylococcus aureus 873 measured on day 45 by macrodilution method
[44] = system: Staphylococcus aureus; assay: Antimicrobial activity against vancomycin-intermediate Staphylococcus aureus 555 measured on day 45 by macrodilution method
[45] = system: Staphylococcus aureus; assay: Antimicrobial activity against methicillin-resistant Staphylococcus aureus 525 measured on day 45 by macrodilution method
[46] = system: Staphylococcus aureus; assay: Antimicrobial activity against methicillin-resistant Staphylococcus aureus 547 measured on day 45 by macrodilution method
[47] = system: Staphylococcus aureus; assay: Antimicrobial activity against methicillin-susceptible Staphylococcus aureus 540 measured on day 45 by macrodilution method
[48] = system: Staphylococcus aureus; assay: Antimicrobial activity against heterogeneous vancomycin-intermediate Staphylococcus aureus 168 measured on day 50 by macrodilution method
[49] = system: Staphylococcus aureus; assay: Antimicrobial activity against heterogeneous vancomycin-intermediate Staphylococcus aureus 873 measured on day 50 by macrodilution method
[50] = system: Staphylococcus aureus; assay: Antimicrobial activity against vancomycin-intermediate Staphylococcus aureus 1287 measured on day 50 by macrodilution method
[51] = system: Staphylococcus aureus; assay: Antimicrobial activity against methicillin-susceptible Staphylococcus aureus 543 measured on day 50 by macrodilution method
[52] = system: Staphylococcus aureus; assay: Antimicrobial activity against vancomycin-resistant Staphylococcus aureus 510 measured on day 50 by macrodilution method

C[C@H]1C=C(c2csc(SC3=C(C(=O)O)N4C(=O)[C@H]([C@@H](C)O)[C@H]4[C@H]3C)n2)CN1 [RAZUPENEM]
MIC [1]: 4 µg/mL (≈ 9.82 µM)
MIC [2]: 0.5 µg/mL (≈ 1.23 µM)
MIC [3]: 1 µg/mL (≈ 2.45 µM)
MIC [4]: 0.5 µg/mL (≈ 1.23 µM)
MIC [5]: 0.016 µg/mL (≈ 0.0393 µM)
MIC [6]: 4 µg/mL (≈ 9.82 µM)
MIC [7]: 4 µg/mL (≈ 9.82 µM)
MIC [8]: 0.25 µg/mL (≈ 0.613 µM)
MIC [9]: 8 µg/mL (≈ 19.6 µM)
MIC [10]: 0.125 µg/mL (≈ 0.307 µM)
MIC [11]: 0.016 µg/mL (≈ 0.0393 µM)
MIC [12]: 0.016 µg/mL (≈ 0.0393 µM)
MIC [13]: 1 µg/mL (≈ 2.45 µM)
MIC [14]: 2 µg/mL (≈ 4.91 µM)
MIC [15]: 0.5 µg/mL (≈ 1.23 µM)
MIC [16]: 0.016 µg/mL (≈ 0.0393 µM)
MIC [17]: 2 µg/mL (≈ 4.91 µM)
MIC [18]: 8 µg/mL (≈ 19.6 µM)
MIC [19]: 0.25 µg/mL (≈ 0.613 µM)
MIC [20]: 0.03 µg/mL (≈ 0.0736 µM)
MIC [21]: 0.03 µg/mL (≈ 0.0736 µM)
MIC [22]: 2 µg/mL (≈ 4.91 µM)
MIC [23]: 4 µg/mL (≈ 9.82 µM)
MIC [24]: 0.5 µg/mL (≈ 1.23 µM)
MIC [25]: 0.03 µg/mL (≈ 0.0736 µM)
MIC [26]: 4 µg/mL (≈ 9.82 µM)
MIC [27]: 4 µg/mL (≈ 9.82 µM)
MIC [28]: 4 µg/mL (≈ 9.82 µM)
MIC [29]: 8 µg/mL (≈ 19.6 µM)
MIC [30]: 8 µg/mL (≈ 19.6 µM)
MIC [31]: 8 µg/mL (≈ 19.6 µM)
MIC [32]: 4 µg/mL (≈ 9.82 µM)
MIC [33]: 4 µg/mL (≈ 9.82 µM)
MIC [34]: 2 µg/mL (≈ 4.91 µM)
MIC [35]: 16 µg/mL (≈ 39.3 µM)
MIC [36]: 0.06 µg/mL (≈ 0.147 µM)
MIC [37]: 4 µg/mL (≈ 9.82 µM)
MIC [38]: 16 µg/mL (≈ 39.3 µM)
MIC [39]: 2 µg/mL (≈ 4.91 µM)
MIC [40]: 16 µg/mL (≈ 39.3 µM)
MIC [41]: 0.06 µg/mL (≈ 0.147 µM)
MIC [42]: 8 µg/mL (≈ 19.6 µM)
MIC [43]: 16 µg/mL (≈ 39.3 µM)
MIC [44]: 8 µg/mL (≈ 19.6 µM)
MIC [45]: 32 µg/mL (≈ 78.5 µM)
MIC [46]: 16 µg/mL (≈ 39.3 µM)
MIC [47]: 0.06 µg/mL (≈ 0.147 µM)
MIC [48]: 8 µg/mL (≈ 19.6 µM)
MIC [49]: 16 µg/mL (≈ 39.3 µM)
MIC [50]: 4 µg/mL (≈ 9.82 µM)
MIC [51]: 0.06 µg/mL (≈ 0.147 µM)
MIC [52]: 4 µg/mL (≈ 9.82 µM)
